Experimental data as given in paper PMC6346587, “Glucose 6-phosphate dehydrogenase 6-phosphogluconolactonase: characterization of the Plasmodium vivax enzyme and inhibitor studies” (Malaria Journal, 2019).

Assays:
[1] = system: P. falciparum 3D7[hGrx1-roGFP2] cytosolic glutathione-dependent redox potential; assay: Cytosolic glutathione redox sensor hGrx1-roGFP2, confocal live cell imaging (CLSM); format: cell-based, Plasmodium falciparum; settings: 24 h incubation, approximately 4 × EC50
Experimental: A Leica confocal system TCS SP5 inverted microscope equipped with the objective HCX PL APO 63.0 × 1.30 GLYC 37 °C UV connected to a 37 °C temperature chamber was used. The argon laser power was set to 20%; scanning was performed at 400 Hz frequency and at a 512 × 512 pixel resolution. The smart gain and smart offset were 950 V and −0.9%, respectively. With a sequential scan, the hGrx1–roGFP2 probe was excited at 405 nm and at 488 nm and emission was detected at 500–550 nm. Laser intensity was adjusted to match the full dynamic range of the probe to the dynamic range of the detector (405 nm: 10%, 488 nm: 4%). […] The Leica LAS AF Lite software for fluorescence analysis was used. The 405/488 nm ratio was calculated. The graphs were plotted using the GraphPad Prism 5 software (San Diego, CA, USA). For live cell imaging, only parasites showing fluorescent signals at both 405 and 488 nm excitation and an intact host cell were chosen.
The effect of ML304 and the anti-malarial drugs ATS and CQ as reference drugs on P. falciparum were investigated in 4 h and 24 h incubation experiments. […] For 4 h experiments, trophozoite stage parasites (26–30 h) of 3D7^[hGrx1–roGFP2] and NF54^[hGrx1–roGFP2] (6–8% parasitaemia) were magnetically enriched (Miltenyi Biotec, Germany), counted by using a Neubauer hemocytometer (Brand GmbH, Germany), and returned to cell culture (at 2.0 × 10^4 trophozoites μL^−1) for at least 1 h to recover. 1.0 × 10^6 cells in 100 μL cell culture medium were placed into LoBind tubes (Eppendorf, Hamburg, Germany) for 4 h incubation experiments. The parasites were treated with ML304 at 1 μM, 50 μM, and 100 μM, or with the anti-malarial drugs ATS and CQ at approximately 50 × EC50 for 4 h under cell culture conditions. Subsequently, free thiol groups were blocked with 2 mM N-ethylmaleimide (NEM) for 15 min at 37 °C. For 24 h experiments, a 5 mL culture (5% haematocrit, 6–8% parasitaemia) of ring stage parasites (6–10 h post invasion) was treated with ML304 at 1 μM, 5 μM, and 10 μΜ, or the anti-malarial drugs ATS and CQ at approximately 4 × EC50. Prior to enrichment, cysteines were blocked with 2 mM NEM for 15 min at 37 °C. For 4 h and 24 h experiments, cells were washed after incubation and resuspended in Ringer’s solution (122.5 mM NaCl, 5.4 mM KCl, 1.2 mM CaCl2, 0.8 mM MgCl2, 11 mM D-glucose, 25 mM HEPES, 1 mM NaH2PO4, pH 7.4). 50 μL of cells (1.0 × 10^6 cells 50^−1 μL^−1) were seeded onto poly-L-lysine-coated μ-Slides 18 well (flat) (Ibidi, Martinsried, Germany) and measured using CLSM (confocal laser scanning microscopy) with excitation wavelengths at 405 nm and 488 nm. […] Each experiment was carried out three times. Between 10 and 20 microscopy images were taken each time, resulting in at least 30 experimental values per concentration and incubation time. The obtained ratio values were normalized to the control value, which was set to 100. All experiments were carried out within 6 weeks after the appearance of transfectants. Mean and standard error of the mean (SEM) are shown. A one-way ANOVA test with 95% confidence intervals with the Dunnett’s multiple comparison test (GraphPad Prism 5.0) was applied for statistical analysis of significance (*p < 0.05; **p < 0.01; ***p < 0.001).

recombinant hGrx1-roGFP2 = molecular target: T1, recombinant hGrx1-roGFP2 (Homo sapiens, UniProt P35754); assay: In vitro interaction with recombinant hGrx1-roGFP2 probe; format: biochemical; settings: at the concentrations used in this study
T1 construct: made in house
Experimental: The sensor hGrx1–roGFP2 (human glutaredoxin 1-reduction–oxidation sensitive green fluorescent protein 2) was recently transiently expressed in 3D7 P. falciparum parasites by using the pARL1a(+) expression vector. Heterologous overexpression of hGrx1–roGFP2 for the evaluation of the in vitro interactions of ML304 and anti-malarial drugs with the recombinant redox probe was performed according to [35].
ML304 was used at concentrations of 10 nM to 1 mM in degassed standard reaction buffer (100 mM potassium phosphate, 1 mM EDTA, pH 7.0). […] The characterization of the in vitro interaction of hGrx1–roGFP2 with ML304 was performed according to Schuh et al..

P. falciparum 3D7 = settings: determined previously; cited from earlier work
PvG6PD = PvG6PD (Plasmodium vivax, UniProt A5K3M1); assay: PvG6PD enzyme inhibition assay (NADPH formation, absorbance 340 nm / fluorescence); format: biochemical; settings: for Type of inhibition of PvG6PD: with respect to both G6P and NADP+
Experimental: The G6PD activity of PfGluPho variants was measured spectrophotometrically as described for the wt enzyme. Kinetic characterization of PvG6PD was performed using the same assay system at an Evolution 300 spectrophotometer (Thermo Scientific, Dreieich, Germany). In brief, the initial reduction of NADP^+ to NADPH by PvG6PD was monitored by measuring the absorbance at 340 nm. The 500 µL reaction mixture contained 200 µM NADP^+ and varying concentrations of PvG6PD in an assay buffer of 100 mM Tris–HCl, pH 8.0, 10 mM MgCl2, and 0.5 mM EDTA at 25 °C. The reaction was started by adding 800 µM G6P. The KM for NADP^+ was determined by titrating NADP^+ from 2 to 400 µM at 800 µM G6P; the KM for G6P was measured accordingly by titrating G6P from 2 to 1200 µM at 200 µM NADP^+. KM values were calculated using GraphPad Prism. Since the KM for G6P was considerably higher than the value measured for PfGluPho [14], a concentration of 800 µM G6P was defined as substrate saturation for PvG6PD.
To identify potential inhibitors of PvG6PD, compounds with already known effects on PfGluPho (ellagic acid and derivatives, ML304) were tested. Additionally, several compound libraries of the Helmholtz Center for Infection Research, Brunswick, were screened against PfGluPho using the high-throughput-compatible assay systems described in Preuss et al.. […] Based on structure-activity relationship studies, a set of new potential G6PD inhibitors (Fig. 8) was then synthesized and assessed. First, the IC50 values of the compounds were determined, followed by mechanistic characterization of the mode of action. To test for selectivity of the compounds, the IC50 values of the compounds on PvG6PD, PfGluPho, and hG6PD were determined in parallel.
All measurements were performed in 96-well plates, half area (Greiner Bio-One, Frickenhausen, Germany) using a Tecan Infinite M200 plate reader (Maennedorf, Switzerland). The compounds were dissolved in 100% DMSO and afterwards diluted in assay buffer to the required concentrations. Different compound concentrations were added to a mixture of enzyme and NADP^+ in assay buffer. Concentrations of substrates differed depending on the enzyme; an overview is given in the Additional file 4. The reaction was started by adding G6P, and the increase of NADPH was monitored by measuring the absorbance at 340 nm. To increase the sensitivity of the assay, some measurements were reproduced, detecting the fluorescence of NADPH at ex340/em460. […] A negative control containing no compound was defined as 0% inhibition; a positive control lacking the substrate G6P was defined as 100% inhibition. For evaluations using GraphPad Prism and Microsoft Excel, only a linear increase in absorbance/fluorescence was considered. For the mechanistic characterization of the compounds, either NADP^+ or G6P were titrated at different compound concentrations around the IC50, while keeping the second substrate in saturation. The initial slope was plotted as Michaelis–Menten curves and Lineweaver–Burk plots using GraphPad Prism; KM values and Vmax were calculated with GraphPad Prism software.

PfGluPho = molecular target: T2, PfGluPho (Plasmodium falciparum, UniProt Q8IKU0); settings: cited from earlier work
T2 construct: made in house
T2 sequence (Q8IKU0 1-910): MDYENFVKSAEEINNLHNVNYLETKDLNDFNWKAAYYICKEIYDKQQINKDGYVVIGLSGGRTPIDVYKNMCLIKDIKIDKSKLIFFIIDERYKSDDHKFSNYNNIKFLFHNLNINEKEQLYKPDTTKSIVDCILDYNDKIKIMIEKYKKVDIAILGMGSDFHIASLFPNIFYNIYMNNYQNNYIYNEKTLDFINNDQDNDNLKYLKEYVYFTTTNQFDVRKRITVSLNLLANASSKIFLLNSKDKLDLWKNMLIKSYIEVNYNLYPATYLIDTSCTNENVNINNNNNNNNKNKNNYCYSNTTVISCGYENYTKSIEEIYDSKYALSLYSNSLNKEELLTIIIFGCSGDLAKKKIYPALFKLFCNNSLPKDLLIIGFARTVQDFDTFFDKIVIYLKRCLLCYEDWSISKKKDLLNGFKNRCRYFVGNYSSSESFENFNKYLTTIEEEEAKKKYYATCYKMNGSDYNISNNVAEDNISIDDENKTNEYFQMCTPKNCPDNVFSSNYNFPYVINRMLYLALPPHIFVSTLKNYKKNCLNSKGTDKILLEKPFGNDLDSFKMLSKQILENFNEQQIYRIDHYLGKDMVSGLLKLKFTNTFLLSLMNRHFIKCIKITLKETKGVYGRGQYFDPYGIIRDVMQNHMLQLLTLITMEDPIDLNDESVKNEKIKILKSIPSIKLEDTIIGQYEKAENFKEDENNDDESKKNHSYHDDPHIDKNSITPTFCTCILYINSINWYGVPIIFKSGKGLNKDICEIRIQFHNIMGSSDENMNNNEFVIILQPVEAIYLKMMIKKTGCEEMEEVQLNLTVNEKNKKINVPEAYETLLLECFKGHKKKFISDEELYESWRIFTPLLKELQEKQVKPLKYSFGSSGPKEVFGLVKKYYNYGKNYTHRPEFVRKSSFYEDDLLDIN

hG6PD = molecular target: T3, hG6PD (Homo sapiens, UniProt P11413); settings: ellagic acid; read-out: IC50 for hG6PD; cited from earlier work
T3 construct: made in house
T3 sequence (P11413 whole entry): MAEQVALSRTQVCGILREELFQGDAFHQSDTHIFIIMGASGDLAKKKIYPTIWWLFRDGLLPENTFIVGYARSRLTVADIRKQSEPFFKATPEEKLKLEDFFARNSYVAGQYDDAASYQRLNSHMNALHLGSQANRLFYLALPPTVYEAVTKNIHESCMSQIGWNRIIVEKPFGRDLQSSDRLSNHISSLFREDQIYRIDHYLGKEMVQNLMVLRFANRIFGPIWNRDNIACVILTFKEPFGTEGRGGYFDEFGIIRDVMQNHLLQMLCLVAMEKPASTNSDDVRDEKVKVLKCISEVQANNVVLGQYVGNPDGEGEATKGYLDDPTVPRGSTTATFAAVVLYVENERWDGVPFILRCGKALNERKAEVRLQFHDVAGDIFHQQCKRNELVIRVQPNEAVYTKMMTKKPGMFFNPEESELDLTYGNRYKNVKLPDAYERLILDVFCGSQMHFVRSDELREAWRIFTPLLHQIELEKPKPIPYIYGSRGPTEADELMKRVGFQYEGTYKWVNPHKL

P. falciparum strains = settings: cited from earlier work
[2] = system: Plasmodium yoelii strain overproducing GSH; set-up: method as in PMID 23029306; settings: cited from earlier work
[3] = cited from earlier work
[4] = molecular target: PfPrx1a (Plasmodium falciparum); assay: non-reducing SDS-PAGE with western blot; recombinant PfPrx1a (positive control) after incubation with GSSG, SDS-PAGE without DTT, anti-glutathione western blot and Ponceau staining
[5] = molecular target: the molecule itself; assay: SEC; gel filtration chromatography of purified PvG6PD under reducing conditions; single peak of approximately 389 kDa

Molecule: C[C@@H]1CC[C@H]2[C@@H](C)C(=O)O[C@@H]3O[C@@]4(C)CC[C@@H]1[C@]32OO4 [ATS, artemisinin]
- Increase of redox ratio (405/488 nm) [1]: hardly affected
- Direct interaction with recombinantly purified hGrx1-roGFP2 probe (recombinant hGrx1-roGFP2): excluded a direct interaction
- EC50 (P. falciparum 3D7): 4.4 nM

Molecule: CCN(CC)CCCC(C)Nc1ccnc2cc(Cl)ccc12 (stereo not drawn) [CQ, chloroquine]
- Increase of redox ratio (405/488 nm) [1]: 1.5 fold
- Direct interaction with recombinantly purified hGrx1-roGFP2 probe (recombinant hGrx1-roGFP2): excluded a direct interaction
- EC50 (P. falciparum 3D7): 8.6 nM

Molecule: O=c1oc2c(O)c(O)cc3c(=O)oc4c(O)c(O)cc1c4c23 [ellagic acid]
- IC50 (PvG6PD): 32.5 ± 13.4 nM
- Type of inhibition of PvG6PD (PvG6PD): mixed type inhibitor
- Type of inhibition of PvG6PD (PvG6PD; listed as EA): mixed type inhibition
- IC50 (PfGluPho; ellagic acid, read-out: IC50 on PfGluPho): 77 ± 22 nM
- Type of inhibition of PfGluPho (PfGluPho; with respect to both G6P and NADP+): mixed type inhibition
- IC50 (hG6PD): 102 ± 39 nM
- Interaction with chloroquine, atovaquone, mefloquine, and artesunate (P. falciparum strains): synergistic effects
- Sensitivity of GSH-overproducing P. yoelii strain versus wt [2]: five times less sensitive
- Haemolytic effects ([3]; mice): no observable haemolytic effects
- Overall toxicity in mice ([3]; mouse, in vivo): low

Molecule: PfPrx1a (enzyme)
- stoichiometry N [4]: 2

B1: Plasmodium vivax glucose 6-phosphate dehydrogenase (PvG6PD), C-terminal part (aa 310-927) of PvGluPho (domain or fragment, UniProt A5K3M1 310-927, looked up)
chain: LNRRECLTIIVFGCSGDLAKKKIYPAIFKLFCNKRLPKDLLIVGFARTAQSFDSFFDKIVGYLKRCLHSYEDLSLTQKKDLLNCFKNKCRYYIGDYSSSESFERFNKYLTQLERENLIGTAPTSWAAAAGNASFANDTDKVEHHPDEAILAKGTGAATPGEAPGGANGPATHGEAHGGANGLSTPMQGKAVPTDDTSDEGHSGANHPFAINRILYLALPPHIFVSTLKNYKKNCQNGNGTDKILLEKPFGKDLQTFKVLSKQILENFNEEHIYRIDHYLGKDMVSGLLKLKFTNTFLLSLMNRHFIKCIKITLKETKGVYGRGQYFDPYGIIRDVMQNHMLQLLALITMEDPIDLNDESVKNEKIKILKCIQSIKLDNTIIGQYVKSENYQEEKNLSAPPSDDHPVDESKRNHSYHDDPHIDSNSITPTFCTCILYINSINWYGVPIIFKAGKGLNKDICEIRLQFHNIMGSSDESMYNNEFVIILQPVEVIYLKMMIKKTGCEEMEEVQLNLTVNHKNKKNYVPEAYETLLLECFRGFKKKFISDEELYESWRIFTPLLNELQEKKVQPLKYPFGSSGPKEVYDLVKKYYNYGKNYANTPAFVRKSSFYEDDLLDIN
notes: glucose 6-phosphate dehydrogenase 6-phosphogluconolactonase (PvGluPho) of Plasmodium vivax, PlasmoDB PVX_117790; G6PD part, aa 310-927 (bp 930-2784); Calculated mass of the His-tagged protein 71.9 kDa; also called P. vivax G6PD; source: E. coli M15 with pRAREII (pQE30 vector), purified (Ni-NTA, size exclusion chromatography); not shown: His6, N-terminal, kept
- stoichiometry N [5]: 6
